From the supplement of paper PMC11208160 come the findings set out here.
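Also: IS621 bridge recombinase in Escherichia coli cells against a fixed T5 target plasmid.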

The data set is described as follows: recombinant UMI read abundance after kanamycin selection (control-corrected) (log10(CPM+1)); higher = more efficient recombination; extreme values may be limits of the assay; sequences stand for … in AGTGCAGAGAAAATCGGCCAGTTTTCTCTGCCTGCAGTCCGCATGCCGTGGGACCCCTTGGGTTCTAACCTGTTGCCTAGATTTATGCAGCGGACTGCCTTTCTCCCAAAGTGATAAACCGG…AGGTTGGTTTCACT; site = the 11-nt donor. Put shortly:
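Sequencing read counts were converted to CPM, averaged over two replicates and scaled by control-derived factors. Results are given as log10(CPM+1). The reads covered the donor–target junction of recombinant UMIs from a pooled Escherichia coli screen of donor and donor-binding-loop pairs for the IS621 bridge recombinase.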
As for “CGAGCATCATGGACCGGTTTTCCCGGTAATCCGTATTTGCA (site CGAGCATCTTG)”, the “recombinant UMI read abundance (log10)” value was determined as 2.46.
Then “CGAGCATCATGGACCGGTTTTCCCGGTAATCCGTATTTGCA (site CGATCATCTAG)”, with 0; and “CGAGCATCATGGACCGGTTTTCCCGGTAATCCGTATTTGTT (site CGAGCATCTAA)”, with 2.61.
On to “CGAGCATCATGGACCGGTTTTCCCGGTAATCCGTATTTGTT (site CGATCATCTAG)”, for which the “recombinant UMI read abundance (log10)” value turned out to be 0.
Under “CGAGCCTCATGGACCGGTTTTCCCGGTAATCCGTATTTGGC (site CGAGCCTCTGC)” stands 2.21; under “CGAGCTTCATGGACCGGTTTTCCCGGTAATCCGTATTTGAA (site CGAGCTTCTTT)”, 1.88.
For “CGAGGACCATGGACCGGTTTTCCCGGTAATCCGTATTTGAG (site CGAGGACCTCA)”, the “recombinant UMI read abundance (log10)” value was determined as 0.015.
Under “CGAGGACCATGGACCGGTTTTCCCGGTAATCCGTATTTGAG (site CGAGGACCTCC)” stands 0; under “CGAGGACCATGGACCGGTTTTCCCGGTAATCCGTATTTGAG (site CGAGGACCTCG)”, 0.00506; under “CGAGGACCATGGACCGGTTTTCCCGGTAATCCGTATTTGAG (site CGAGGACCTCT)”, 0.00302.
As to “CGAGGAGCATGGACCGGTTTTCCCGGTAATCCGTATTTGGA (site CGAGGAGCTTC)”, the “recombinant UMI read abundance (log10)” value turned out to be 1.57.
Then “CGAGGATCATGGACCGGTTTTCCCGGTAATCCGTATTTGAC (site CGAGGATCTGT)”, with 2.99.
Regarding “CGAGGATCATGGACCGGTTTTCCCGGTAATCCGTATTTGAC (site CTAGTATCTGT)”, the “recombinant UMI read abundance (log10)” value is 0.
As for “CGAGGGCCATGGACCGGTTTTCCCGGTAATCCGTATTTGCA (site CGAGGGCCTTG)”, the “recombinant UMI read abundance (log10)” value is 0.708.
Then “CGAGGGCCATGGACCGGTTTTCCCGGTAATCCGTATTTGGG (site CGAGGACCTCC)”, with 0.0191.
Under “CGAGGGCCATGGACCGGTTTTCCCGGTAATCCGTATTTGGG (site CGAGGCCCTCC)” stands 0.0184; under “CGAGGGCCATGGACCGGTTTTCCCGGTAATCCGTATTTGGG (site CGAGGGCCTCC)”, 0.0164; under “CGAGGGCCATGGACCGGTTTTCCCGGTAATCCGTATTTGGG (site CGAGGTCCTCC)”, 0.0269.
Under “CGAGTACCATGGACCGGTTTTCCCGGTAATCCGTATTTGGG (site CGAGAACCTCC)” stands 0; under “CGAGTACCATGGACCGGTTTTCCCGGTAATCCGTATTTGGG (site CGAGCACCTCC)”, 0.0141; under “CGAGTACCATGGACCGGTTTTCCCGGTAATCCGTATTTGGG (site CGAGGACCTCC)”, 0.00419.
Take “CGAGTACCATGGACCGGTTTTCCCGGTAATCCGTATTTGGG (site CGAGTACCTCC)”: the “recombinant UMI read abundance (log10)” value is 0.0186.
Take “CGAGTGCCATGGACCGGTTTTCCCGGTAATCCGTATTTGTT (site CGAGTGCCTAA)”: the “recombinant UMI read abundance (log10)” value is 0.52.
Then “CGATAACCATGGACCGGTTTTCCCGGTAATCCGTATTTGGT (site CGATAACCTAC)”, with 0.
Turning to “CGATACTCATGGACCGGTTTTCCCGGTAATCCGTATTTGCT (site CGATACTCTAG)”, the “recombinant UMI read abundance (log10)” value was determined as 2.52.
Under “CGATACTCATGGACCGGTTTTCCCGGTAATCCGTATTTGCT (site CGATCATCTAG)” stands 0.
Under “CGATAGACATGGACCGGTTTTCCCGGTAATCCGTATTTGCC (site AGATAGACTGG)” stands 0; under “CGATAGACATGGACCGGTTTTCCCGGTAATCCGTATTTGCC (site CGATAGACTGG)”, 2.96; under “CGATAGACATGGACCGGTTTTCCCGGTAATCCGTATTTGCC (site GGATAGACTGG)”, 0.
“CGATAGACATGGACCGGTTTTCCCGGTAATCCGTATTTGCC (site TGATAGACTGG)”: the “recombinant UMI read abundance (log10)” value was 0.
With “CGATAGCCATGGACCGGTTTTCCCGGTAATCCGTATTTGCT (site CGATAGCCTAG)”, the “recombinant UMI read abundance (log10)” value was 1.12.
Then “CGATATACATGGACCGGTTTTCCCGGTAATCCGTATTTGTA (site CGATATACTTA)”, with 2.25; and “CGATATGCATGGACCGGTTTTCCCGGTAATCCGTATTTGGG (site CGATATGCTCC)”, with 0.685; and “CGATCAACATGGACCGGTTTTCCCGGTAATCCGTATTTGGT (site CGATCAACTAC)”, with 0.796.
Regarding “CGATCAACATGGACCGGTTTTCCCGGTAATCCGTATTTGGT (site CGATCATCTAG)”, the “recombinant UMI read abundance (log10)” value is 0.
Under “CGATCACCATGGACCGGTTTTCCCGGTAATCCGTATTTGCC (site CGATCACCTGG)” stands 0; under “CGATCACCATGGACCGGTTTTCCCGGTAATCCGTATTTGCC (site CGATCATCTAG)”, 0; under “CGATCACCATGGACCGGTTTTCCCGGTAATCCGTATTTGCT (site CGATCAACTAG)”, 0.
Take “CGATCACCATGGACCGGTTTTCCCGGTAATCCGTATTTGCT (site CGATCACCTAG)”: the “recombinant UMI read abundance (log10)” value stood at 0.
As for “CGATCACCATGGACCGGTTTTCCCGGTAATCCGTATTTGCT (site CGATCAGCTAG)”, the “recombinant UMI read abundance (log10)” value came out at 0.
Then “CGATCACCATGGACCGGTTTTCCCGGTAATCCGTATTTGCT (site CGATCATCTAG)”, with 0.
Then “CGATCAGCATGGACCGGTTTTCCCGGTAATCCGTATTTGCA (site CGATCAGCTTG)”, with 1.9; and “CGATCAGCATGGACCGGTTTTCCCGGTAATCCGTATTTGCA (site CGATCATCTAG)”, with 0; and “CGATCAGCATGGACCGGTTTTCCCGGTAATCCGTATTTGCT (site CGATCAACTAG)”, with 0.
On to “CGATCAGCATGGACCGGTTTTCCCGGTAATCCGTATTTGCT (site CGATCACCTAG)”, for which the “recombinant UMI read abundance (log10)” value came out at 0.
Under “CGATCAGCATGGACCGGTTTTCCCGGTAATCCGTATTTGCT (site CGATCAGCTAG)” stands 1.61; under “CGATCAGCATGGACCGGTTTTCCCGGTAATCCGTATTTGCT (site CGATCATCTAG)”, 0; under “CGATCATCATGGACCGGTTTTCCCGGTAATCCGTATTTGGT (site CGATCATCTAA)”, 0.00543.
Under “CGATCATCATGGACCGGTTTTCCCGGTAATCCGTATTTGGT (site CGATCATCTAC)” stands 1.58; under “CGATCATCATGGACCGGTTTTCCCGGTAATCCGTATTTGGT (site CGATCATCTAG)”, 0.495.
Then “CGATCATCATGGACCGGTTTTCCCGGTAATCCGTATTTGGT (site CGATCATCTAT)”, with 1.08.
Turning to “CGATCGACATGGACCGGTTTTCCCGGTAATCCGTATTTGCT (site CGATCGACTAA)”, the “recombinant UMI read abundance (log10)” value came out at 0.3.
On to “CGATCGACATGGACCGGTTTTCCCGGTAATCCGTATTTGCT (site CGATCGACTAC)”, for which the “recombinant UMI read abundance (log10)” value was found to be 0.00923.
Then “CGATCGACATGGACCGGTTTTCCCGGTAATCCGTATTTGCT (site CGATCGACTAG)”, with 2.63; and “CGATCGACATGGACCGGTTTTCCCGGTAATCCGTATTTGCT (site CGATCGACTAT)”, with 0.0395.
In the case of “CGATCGACATGGACCGGTTTTCCCGGTAATCCGTATTTGTC (site CGATCGACTAA)”, the “recombinant UMI read abundance (log10)” value was found to be 0.00466.
For “CGATCGACATGGACCGGTTTTCCCGGTAATCCGTATTTGTC (site CGATCGACTCA)”, the “recombinant UMI read abundance (log10)” value was determined as 0.
On to “CGATCGACATGGACCGGTTTTCCCGGTAATCCGTATTTGTC (site CGATCGACTGA)”, for which the “recombinant UMI read abundance (log10)” value came to 1.08.
Then “CGATCGACATGGACCGGTTTTCCCGGTAATCCGTATTTGTC (site CGATCGACTTA)”, with 0; and “CGATCGGCATGGACCGGTTTTCCCGGTAATCCGTATTTGAA (site CGATCGGCTTT)”, with 1.25; and “CGATCGTCATGGACCGGTTTTCCCGGTAATCCGTATTTGTT (site CGATCGACTAA)”, with 0.00634.
For the sequence “CGATCGTCATGGACCGGTTTTCCCGGTAATCCGTATTTGTT (site CGATCGCCTAA)”, the “recombinant UMI read abundance (log10)” value is 0.0131.
Under “CGATCGTCATGGACCGGTTTTCCCGGTAATCCGTATTTGTT (site CGATCGGCTAA)” stands 0.0205; under “CGATCGTCATGGACCGGTTTTCCCGGTAATCCGTATTTGTT (site CGATCGTCTAA)”, 1.25.
Then “CGATCTCCATGGACCGGTTTTCCCGGTAATCCGTATTTGCT (site CGATCTCCTAG)”, with 0; and “CGATCTTCATGGACCGGTTTTCCCGGTAATCCGTATTTGTT (site CGATCATCTAG)”, with 0.
For “CGATCTTCATGGACCGGTTTTCCCGGTAATCCGTATTTGTT (site CGATCTTCTAA)”, the “recombinant UMI read abundance (log10)” value turned out to be 0.751.
Under “CGATGATCATGGACCGGTTTTCCCGGTAATCCGTATTTGCT (site CGATAATCTAG)” stands 2.33.
